# Data: publication PMC5863496, “Mesobuthus Venom-Derived Antimicrobial Peptides Possess Intrinsic Multifunctionality and Differential Potential as Drugs” (Frontiers in Microbiology, 2018)
# Ends that are not written are not given here.
# Columns and labels:
# Test in all cases: Inhibition-zone assay (CL)
# Format in all cases: cell-based
# Escherichia coli D. J45b = conditions: EC D. J45b, N.A. = no activity at 0.8 nmol peptide each well
# Summary of the method: (§1)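 Bacteria (~2 × 10^6 cells/ml) were seeded in 0.8% soft-agar medium (LB, Nutrient Broth or GYM) and grown at 30 or 37°C. Three peptide doses were placed in separate 2 mm wells, and inhibition zones were measured after overnight incubation. CL was calculated from the slope and intercept of a d^2 versus log n plot.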
# [1] = system: Pseudomonas aeruginosa O1; conditions: PA O1, N.A. = no activity at 0.8 nmol peptide each well
# Summary of the method: as §1
# [2] = system: Alcaligenes faecalis CGMCC 1.1837; conditions: AF CGMCC 1.1837, N.A. = no activity at 0.8 nmol peptide each well
# Summary of the method: as §1
# [3] = system: Pseudomonas aeruginosa 11082616; conditions: PA 11082616, N.A. = no activity at 0.8 nmol peptide each well
# Summary of the method: as §1
# [4] = system: Pseudomonas aeruginosa QT1; conditions: PA QT1, N.A. = no activity at 0.8 nmol peptide each well
# Summary of the method: as §1
# [5] = system: Pseudomonas aeruginosa 14; conditions: PA 14, N.A. = no activity at 0.8 nmol peptide each well
# Summary of the method: as §1
# [6] = system: Pseudomonas aeruginosa DH; conditions: PA DH, N.A. = no activity at 0.8 nmol peptide each well
# Summary of the method: as §1
# [7] = system: Pseudomonas aeruginosa 11082603; conditions: PA 11082603, N.A. = no activity at 0.8 nmol peptide each well
# Summary of the method: as §1
# [8] = system: Pseudomonas aeruginosa 11092618; conditions: PA 11092618, N.A. = no activity at 0.8 nmol peptide each well
# Summary of the method: as §1
# [9] = system: Pseudomonas aeruginosa 11092304; conditions: PA 11092304, N.A. = no activity at 0.8 nmol peptide each well
# Summary of the method: as §1
# Candida albicans JX1016 = conditions: CA JX1016, 28°C, N.A. = no activity at 0.8 nmol peptide each well
# [10] = system: Saccharomyces cerevisiae CCTCC AY 92003; conditions: SC CCTCC AY 92003, 28°C, N.A. = no activity at 0.8 nmol peptide each well
# [11] = system: Streptomyces scabiei CGMCC 4.1765; conditions: SSCA CGMCC 4.1765, N.A. = no activity at 0.8 nmol peptide each well
# Summary of the method: as §1
# Candida albicans 4247 = conditions: CA 4247, 28°C, N.A. = no activity at 0.8 nmol peptide each well
# Candida albicans JX1009 = conditions: CA JX1009, 28°C, N.A. = no activity at 0.8 nmol peptide each well
# Candida albicans JX1017 = conditions: CA JX1017, 28°C, N.A. = no activity at 0.8 nmol peptide each well
# Candida albicans SZ72 = conditions: CA SZ72, 28°C, N.A. = no activity at 0.8 nmol peptide each well
# [12] = system: Staphylococcus aureus J710; conditions: SA J710, N.A. = no activity at 0.8 nmol peptide each well
# Summary of the method: as §1
# [13] = system: Geotrichum candidum CCTCC AY 93038; conditions: GC CCTCC AY 93038, 28°C, N.A. = no activity at 0.8 nmol peptide each well
# Candida albicans 4259 = conditions: CA 4259, 28°C, N.A. = no activity at 0.8 nmol peptide each well
# [14] = system: Staphylococcus aureus J708; conditions: SA J708, N.A. = no activity at 0.8 nmol peptide each well
# Summary of the method: as §1
# Candida albicans 4277 = conditions: CA 4277, 28°C, N.A. = no activity at 0.8 nmol peptide each well
# [15] = system: Streptomyces griseus NBRC 13350; conditions: SG NBRC 13350, N.A. = no activity at 0.8 nmol peptide each well
# Summary of the method: as §1
# Escherichia coli TOP10 = conditions: EC TOP10, N.A. = no activity at 0.8 nmol peptide each well
# Summary of the method: as §1
# [16] = system: Staphylococcus aureus J706; conditions: SA J706, N.A. = no activity at 0.8 nmol peptide each well
# Summary of the method: as §1
Molecule,Lethal concentration (CL) (Escherichia coli D. J45b) [µM],Lethal concentration (CL) [1] [µM],Lethal concentration (CL) [2] [µM],Lethal concentration (CL) [3] [µM],Lethal concentration (CL) [4] [µM],Lethal concentration (CL) [5] [µM],Lethal concentration (CL) [6] [µM],Lethal concentration (CL) [7] [µM],Lethal concentration (CL) [8] [µM],Lethal concentration (CL) [9] [µM],Lethal concentration (CL) (Candida albicans JX1016) [µM],Lethal concentration (CL) [10] [µM],Lethal concentration (CL) [11] [µM],Lethal concentration (CL) (Candida albicans 4247) [µM],Lethal concentration (CL) (Candida albicans JX1009) [µM],Lethal concentration (CL) [12] [µM],Lethal concentration (CL) [14] [µM],Lethal concentration (CL) [15] [µM],Lethal concentration (CL) (Escherichia coli TOP10) [µM],Lethal concentration (CL) [16] [µM],also measured
FFGHLFKLATKIIPSFFRRKNQ [MAC-22],6.78,12.03,11.13,19.08,10.98,6.78,11.13,14.35,19.08,24.82,–,–,–,–,–,–,–,–,–,–,–
FLFSLIPSAISGLISAFKGRRKRDLN-NH2 [MarMEL],6.24,–,–,8.41,14.29,–,14.29,8.41,8.41,24.95,14.29,7.72,1.56,7.04,6.49,8.41,4.69,5.19,4.10,8.41,Lethal concentration (CL) (Candida albicans JX1017): 4.07 µM; Lethal concentration (CL) (Candida albicans SZ72): 6.70 µM; Lethal concentration (CL) [13]: 6.34 µM; Lethal concentration (CL) (Candida albicans 4259): 5.17 µM; Lethal concentration (CL) (Candida albicans 4277): 7.04 µM
"FFGHLFKLATKIIPSLFQ [MUC-18, reference compound]",22.72,41.58,18.64,31.40,18.49,31.40,–,–,31.40,31.40,–,–,4.45,–,–,5.16,6.86,31.40,–,4.86,–
"CC[C@H](C)[C@H](NC(=O)CN)C(=O)NCC(=O)N[C@@H](C)C(=O)N[C@H](C(=O)N[C@@H](CC(C)C)C(=O)N[C@@H](CCCCN)C(=O)N[C@H](C(=O)N[C@@H](CC(C)C)C(=O)N[C@H](C(=O)N[C@H](C(=O)NCC(=O)N[C@@H](CC(C)C)C(=O)N1CCC[C@H]1C(=O)N[C@@H](C)C(=O)N[C@@H](CC(C)C)C(=O)N[C@H](C(=O)N[C@@H](CO)C(=O)N[C@@H](Cc1c[nH]c2ccccc12)C(=O)N[C@H](C(=O)N[C@@H](CCCCN)C(=O)N[C@@H](CCCNC(=N)N)C(=O)N[C@@H](CCCCN)C(=O)N[C@@H](CCCNC(=N)N)C(=O)N[C@@H](CCC(N)=O)C(=O)N[C@@H](CCC(N)=O)C(N)=O)[C@@H](C)CC)[C@@H](C)CC)[C@@H](C)O)[C@@H](C)O)C(C)C)C(C)C [Melittin, reference compound]",24.54,–,–,–,–,–,–,–,–,–,–,–,15.93,–,–,8.98,7.80,28.79,13.80,16.41,–
FLFSLIPSAISGLINAFK-NH2 [MeuFSPL-2],–,–,–,–,–,–,–,–,–,–,23.35,11.62,7.75,7.02,11.58,7.04,6.21,–,11.58,7.04,Lethal concentration (CL) (Candida albicans JX1017): 11.10 µM; Lethal concentration (CL) (Candida albicans SZ72): 12.72 µM; Lethal concentration (CL) [13]: 24.94 µM; Lethal concentration (CL) (Candida albicans 4259): 12.61 µM; Lethal concentration (CL) (Candida albicans 4277): 7.06 µM
FLFSLIPSAISGLISAFK-NH2 [MeuFSPL-1],–,–,–,–,–,–,–,–,–,–,28.38,25.00,1.77,15.28,15.55,10.92,10.92,6.81,9.94,10.92,Lethal concentration (CL) (Candida albicans JX1017): 11.72 µM; Lethal concentration (CL) (Candida albicans SZ72): 21.82 µM; Lethal concentration (CL) [13]: 17.70 µM; Lethal concentration (CL) (Candida albicans 4259): 14.80 µM; Lethal concentration (CL) (Candida albicans 4277): 6.25 µM
FFGHLFKLATKIIPSLFQRKKE [MUC-22],7.49,3.79,11.65,10.02,6.10,4.06,9.93,6.10,6.10,10.02,–,–,–,–,–,–,–,–,–,–,–
